In article PMC2362735, “New semisynthetic vinca alkaloids: chemical, biochemical and cellular studies” (British Journal of Cancer, 1999):
Read-outs that look alike come from different tables or passages of the source.

How the values were obtained:
[1] = system: Mouse leukaemia P388 cells; experiment: In vivo anti-tumour effect on P388 mouse leukaemia, single i.p. dose; details: for Dose (mg kg-1) giving the maximal effect: P388, single doses i.p.; for Maximal effect T/C (%): P388, single doses i.p. 24 h after transplantation, median survival treated/control x 100, six animals per group
Text: (§1) The numerous antimitotic drugs already developed and therapeu- tically used for a large number of pathologies belong to different classes based on their chemical structure and other distinctive features. Antimitotic drugs usually target the tubulin/microtubule network of the cytoskeleton that is formed by assembly of cyto- plasmic tubulin dimers. The stability of the different microtubular structures varies considerably; some of their functions depend on their lability. The lability is augmented by the extreme sensitivity to various drugs. Several synthetic and natural compounds interact specifically with tubulin and/or microtubule, fundamentally destroying its dynamic character and leading to cell death. […] Because of their extensive clinical use, it is important to synthesize additional agents having at least the same biological activity. […] Nevertheless, it is unclear yet how the anti-calmodulin activity of these drugs is related to their desired and undesired pharmacological effects. […] The synthesis of the KAR derivatives are presented. […] Taxol, GTP and trifluoperazine were purchased from Sigma. All organic reagents for synthesis of the new compounds were obtained from Aldrich and were of the highest grade. All other chemicals were reagent grade commercial preparations. […] Tubulin was stored in 1 M sucrose, 10 mM sodium phosphate buffer, 0.5 mM magnesium chloride and 0.1 mM GTP, pH 7.0, at -80C and dialysed against the appropriate buffer before use. […] PFK, aldolase and glycerol-3-phosphate dehydrogenase- triosephosphate isomerase purified from rabbit skeletal muscle were purchased in ammonium sulphate suspensions from Sigma or Boehringer. The enzyme suspensions were centrifuged at 10 000g for 5 min. The pellets were suspended in the appropriate buffer, then the enzymes were gel filtered or dialysed in the same buffer to remove ammonium sulphate. […] (Figure 1B; R1 , CH3; R2 , CH2 CH2 Cl). […] After 2 h incubation at room temperature, 200 ml dried toluene was added to the reaction mixture. […] The mixture was stirred for 30 min. After separation of the organic phase, it was washed with water (3 x 30 ml) and dried with potassium sulphate and evaporated on a water bath of 35-40C at 20-27 hPa. The resulting material was chromatographed on silica gel (500 g, bead size of 0.040- 0.063 mm) column (30 mm x 500 mm) using ethyl acetate/ethanol (9:1) mixture as eluent. […] The mixture was kept for 4 h at room temperature and then evaporated on a water bath at 40C under a vacuum of 80 hPa to a final volume of 5-6 ml. […] (Figure 1B, R1 , CHO; R2 , CH2 CH2 Cl). […] Synthesis of KAR-4 [3-allyl-2,4-dioxo-3,5-spiro-oxazolidino- 4-deacetoxy-vinblastine] (Figure 1B; R1 , CH3; R2 , CH2 CH=CH2 ). […] NMR measurements were carried out on a Varian Unity plus-500 instrument (500 MHz for 1H and 125 MHz for 13C) in DMSO. Chemical shifts were determined relative to dTMS = 0.00 p.p.m. 1H and 13C signal assignments were verified by a concerted use of two-dimensional 1H-1H and 1H-13C shift correlation methods (DQFCOSY, HSQC, HMBC) and NOESY experiments. The gradient-enhanced DQFCOSY, HSQC, HMBC and NOESY experiments were recorded by using the standard spectrometer software package. A mixing time of tmix = 0.5 s was used for the NOESY experiments.

[2] = system: Mouse Ehrlich ascites tumour cells; experiment: In vivo anti-tumour effect on Ehrlich ascites carcinoma, single i.p. dose 4 days after transplantation
Text: as §1

[3] = system: Human neuroblastoma cell line (SH-SY5Y); experiment: Microculture tetrazolium assay (MTA), cytotoxicity
Text: as §1

tubulin = experiment: Taxol-induced tubulin polymerization, turbidity at 350 nm; format: biochemical, calf; details: taxol-induced assembly, MES buffer pH 6.8, 37C; average of three independent measurements; read-out: Anti-tubulin effect, turbidity at 350 nm, IC50
Text: as §1

calmodulin = biological target: T1, calmodulin (Bos taurus, UniProt P62157); experiment: Anti-calmodulin activity assay: calmodulin-induced PFK inactivation; format: biochemical, bovine; details: drug 20 M; for Effect on calmodulin induced PFK inactivation: Activity (U mg-1): PFK 1.2 M protomers, calmodulin 3 M, 60 min, without calmodulin 66.6 U mg-1, with calmodulin 8.0 U mg-1; for Anti-calmodulin activity: Efficiency (%): calculated from the activity data (100% = PFK without calmodulin, 0% = PFK with calmodulin)
T1 construct: Calmodulin from bovine brain was purified to homogeneity using Phenyl-Sepharose (Pharmacia) chromatography; from tissue; host or cells: bovine brain
Text: The numerous antimitotic drugs already developed and therapeu- tically used for a large number of pathologies belong to different classes based on their chemical structure and other distinctive features. Antimitotic drugs usually target the tubulin/microtubule network of the cytoskeleton that is formed by assembly of cyto- plasmic tubulin dimers. The stability of the different microtubular structures varies considerably; some of their functions depend on their lability. The lability is augmented by the extreme sensitivity to various drugs. Several synthetic and natural compounds interact specifically with tubulin and/or microtubule, fundamentally destroying its dynamic character and leading to cell death. […] Because of their extensive clinical use, it is important to synthesize additional agents having at least the same biological activity. […] Nevertheless, it is unclear yet how the anti-calmodulin activity of these drugs is related to their desired and undesired pharmacological effects. […] The synthesis of the KAR derivatives are presented. […] Taxol, GTP and trifluoperazine were purchased from Sigma. All organic reagents for synthesis of the new compounds were obtained from Aldrich and were of the highest grade. All other chemicals were reagent grade commercial preparations. […] Tubulin was stored in 1 M sucrose, 10 mM sodium phosphate buffer, 0.5 mM magnesium chloride and 0.1 mM GTP, pH 7.0, at -80C and dialysed against the appropriate buffer before use. […] PFK, aldolase and glycerol-3-phosphate dehydrogenase- triosephosphate isomerase purified from rabbit skeletal muscle were purchased in ammonium sulphate suspensions from Sigma or Boehringer. The enzyme suspensions were centrifuged at 10 000g for 5 min. The pellets were suspended in the appropriate buffer, then the enzymes were gel filtered or dialysed in the same buffer to remove ammonium sulphate. […] (Figure 1B; R1 , CH3; R2 , CH2 CH2 Cl). […] After 2 h incubation at room temperature, 200 ml dried toluene was added to the reaction mixture. […] The mixture was stirred for 30 min. After separation of the organic phase, it was washed with water (3 x 30 ml) and dried with potassium sulphate and evaporated on a water bath of 35-40C at 20-27 hPa. The resulting material was chromatographed on silica gel (500 g, bead size of 0.040- 0.063 mm) column (30 mm x 500 mm) using ethyl acetate/ethanol (9:1) mixture as eluent. […] The mixture was kept for 4 h at room temperature and then evaporated on a water bath at 40C under a vacuum of 80 hPa to a final volume of 5-6 ml. […] (Figure 1B, R1 , CHO; R2 , CH2 CH2 Cl). […] Synthesis of KAR-4 [3-allyl-2,4-dioxo-3,5-spiro-oxazolidino- 4-deacetoxy-vinblastine] (Figure 1B; R1 , CH3; R2 , CH2 CH=CH2 ). […] NMR measurements were carried out on a Varian Unity plus-500 instrument (500 MHz for 1H and 125 MHz for 13C) in DMSO. Chemical shifts were determined relative to dTMS = 0.00 p.p.m. 1H and 13C signal assignments were verified by a concerted use of two-dimensional 1H-1H and 1H-13C shift correlation methods (DQFCOSY, HSQC, HMBC) and NOESY experiments. The gradient-enhanced DQFCOSY, HSQC, HMBC and NOESY experiments were recorded by using the standard spectrometer software package. A mixing time of tmix = 0.5 s was used for the NOESY experiments. […] Mass spectrum was recorded on a Kratos MS 80 instrument using FAB.

[4] = system: Mouse leukaemia P388 cells; set-up: method as in Orosz et al (1997a); details: P388, single doses i.p.; data published also in ref Orosz et al (1997a); cited from earlier work
[5] = biological target: Phosphofructokinase [ATP: D-fructose 6-phosphate 1-phospho-transferase, EC 2.7.1.11] from rabbit skeletal muscle (rabbit) (UniProt P00511)
Phosphofructokinase [ATP: D-fructose 6-phosphate 1-phospho-transferase, EC 2.7.1.11] from rabbit skeletal muscle (rabbit), sequence (P00511 whole entry): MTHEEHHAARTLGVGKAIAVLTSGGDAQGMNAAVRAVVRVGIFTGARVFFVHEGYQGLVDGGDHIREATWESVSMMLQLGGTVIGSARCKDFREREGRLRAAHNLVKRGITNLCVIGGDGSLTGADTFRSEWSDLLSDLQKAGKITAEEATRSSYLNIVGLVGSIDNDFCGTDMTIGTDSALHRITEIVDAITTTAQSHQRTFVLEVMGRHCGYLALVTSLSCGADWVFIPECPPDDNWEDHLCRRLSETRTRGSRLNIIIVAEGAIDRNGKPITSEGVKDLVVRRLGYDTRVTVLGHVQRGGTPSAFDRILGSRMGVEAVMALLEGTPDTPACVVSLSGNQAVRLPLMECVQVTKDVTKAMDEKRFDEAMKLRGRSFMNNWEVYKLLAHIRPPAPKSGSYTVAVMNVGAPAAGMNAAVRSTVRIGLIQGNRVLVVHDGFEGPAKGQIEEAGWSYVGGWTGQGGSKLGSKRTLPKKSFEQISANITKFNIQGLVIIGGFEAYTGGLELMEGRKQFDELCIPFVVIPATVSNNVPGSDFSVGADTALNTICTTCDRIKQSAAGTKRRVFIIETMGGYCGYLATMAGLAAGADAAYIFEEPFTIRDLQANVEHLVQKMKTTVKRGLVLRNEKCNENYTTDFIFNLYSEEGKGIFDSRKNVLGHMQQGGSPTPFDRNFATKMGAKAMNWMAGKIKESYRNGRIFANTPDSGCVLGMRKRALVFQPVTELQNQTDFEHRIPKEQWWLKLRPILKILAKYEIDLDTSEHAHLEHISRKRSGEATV

[6] = Table 2A, 40 mg kg-1 single dose i.p.
[7] = Table 2A, 40 mg kg-1 single dose i.p., sacrifice 8 days after implantation, control 5.33 ml
[8] = read-out: Cytotoxicity MTA IC50, 4-day treatment, MTT
[9] = Table 2B, 2 mg kg-1 single dose i.p.
[10] = Table 2B, 5 mg kg-1 single dose i.p.
[11] = Table 2B, 10 mg kg-1 single dose i.p.

CCC1(O)CC2CN(CCc3c([nH]c4ccccc34)C(C(=O)OC)(c3cc4c(cc3OC)N(C=O)C3C5(CC6(CC)C=CCN7CCC43C76)OC(=O)N(CCCl)C5=O)C2)C1 (centres unmarked) [KAR-3, 3-(-chloroethyl)-2,4-dioxo-3,5-spiro-oxazolidino-4-deacetoxy-vincristine]
Dose (mg kg-1) giving the maximal effect [1]: 20 mg/kg | Maximal effect T/C (%) [1]: 187% | Cells ml-1 (per cent of control) [2, 6]: 57 per cent of control | Total cells (per cent of control) [2, 6]: 32 per cent of control | Volume of tumour per mouse [2, 7]: 3.00 mL | IC50 [3, 8]: 3.1e-07 M | IC50 (tubulin): 136 nM | Effect on calmodulin induced PFK inactivation: Activity (U mg-1) (calmodulin): 34.4 U mg-1 | anti-calmodulin activity in the PFK assay (in words) (calmodulin): significant anti-calmodulin potency | reduction of the calmodulin-mediated inactivation of PFK (calmodulin): about 50% | Anti-calmodulin activity: Efficiency (%) (calmodulin): 45%

C=CCN1C(=O)O[C@@]2(C[C@]3(CC)C=CCN4CC[C@@]5(c6cc([C@@]7(C(=O)OC)C[C@@H]8CN(CCc9c7[nH]c7ccccc97)C[C@](O)(CC)C8)c(OC)cc6N(C)[C@H]52)[C@@H]43)C1=O [KAR-4, 3-allyl-2,4-dioxo-3,5-spiro-oxazolidino-4-deacetoxy-vinblastine]
Dose (mg kg-1) giving the maximal effect [1]: 40 mg/kg | Maximal effect T/C (%) [1]: 214% | Cells ml-1 (per cent of control) [2, 6]: 90 per cent of control | Total cells (per cent of control) [2, 6]: 57 per cent of control | Volume of tumour per mouse [2, 7]: 3.33 mL | IC50 [3, 8]: 3.5e-07 M | IC50 (tubulin): 185 nM | Effect on calmodulin induced PFK inactivation: Activity (U mg-1) (calmodulin): 10.9 U mg-1 | anti-calmodulin activity in the PFK assay (in words) (calmodulin): does not display anti-calmodulin activity | Anti-calmodulin activity: Efficiency (%) (calmodulin): 5%

CC[C@]1(O)C[C@H]2CN(CCc3c([nH]c4ccccc34)[C@@](C(=O)OC)(c3cc4c(cc3OC)N(C=O)[C@H]3[C@@](O)(C(=O)OC)[C@H](OC(C)=O)[C@]5(CC)C=CCN6CC[C@]43[C@@H]65)C2)C1 [Vincristine, vincristine, reference compound]
mortality of treated animals ([2]; 15 mg kg-1 (highest dose) single dose i.p., three mice per group): death of two of the three treated animals | Total cells (per cent of control) ([2]; Table 2B, 1 mg kg-1 single dose i.p.): 57 per cent of control | Volume of tumour per mouse ([2]; Table 2B, 1 mg kg-1 single dose i.p., control 2.67 ml): 2.00 mL | Cells ml-1 (per cent of control) [2, 9]: 106 per cent of control | Total cells (per cent of control) [2, 9]: 60 per cent of control | Volume of tumour per mouse ([2]; Table 2B, 2 mg kg-1 single dose i.p., control 2.67 ml): 1.50 mL | Cells ml-1 (per cent of control) [2, 10]: 225 per cent of control | Total cells (per cent of control) [2, 10]: 54 per cent of control | Volume of tumour per mouse ([2]; Table 2B, 5 mg kg-1 single dose i.p., control 2.67 ml): 0.64 mL | Cells ml-1 (per cent of control) [2, 11]: 224 per cent of control | Total cells (per cent of control) [2, 11]: 45 per cent of control | Volume of tumour per mouse ([2]; Table 2B, 10 mg kg-1 single dose i.p., control 2.67 ml): 0.53 mL | maximum dose that did not result in the death of the animals ([2]; single dose i.p., Ehrlich ascites mice): 10 mg/kg | IC50 ([3]; Homo sapiens, 96 h, read-out: Cytotoxicity MTA IC50): 1.3e-08 M | IC50 ([3]; Homo sapiens, 96 h, read-out: Cytotoxicity MTA IC50 (M)): 1.3e-08 M | IC50 (tubulin): 290 nM | Dose (mg kg-1) giving the maximal effect [4]: 1 mg/kg

Calmodulin from bovine brain (from UniProt P62157 1-149) (natural protein)
PFK activity after 60 min incubation with calmodulin and KAR-2 (calmodulin induced PFK inactivation) [5]: 11.1 U mg-1 | PFK activity after 60 min incubation with calmodulin and KAR-3 (calmodulin induced PFK inactivation) [5]: 34.4 U mg-1 | PFK activity after 60 min incubation with calmodulin and KAR-4 (calmodulin induced PFK inactivation) [5]: 10.9 U mg-1 | PFK activity after 60 min incubation with calmodulin and trifluoperazine (calmodulin induced PFK inactivation) [5]: 46.1 U mg-1 | efficiency of KAR-2 in suspending the calmodulin induced PFK inactivation [5]: 5% | efficiency of KAR-3 in suspending the calmodulin induced PFK inactivation [5]: 45% | efficiency of KAR-4 in suspending the calmodulin induced PFK inactivation [5]: 5% | efficiency of trifluoperazine in suspending the calmodulin induced PFK inactivation [5]: 65% | residual PFK activity after 60 min incubation with calmodulin, no drug (66.6 U mg-1 without calmodulin) [5]: 8 U mg-1
